Experimental data: patent US20040152670A1, “Novel aminoindanes” (priority 1999, published 2004)
Read-outs that look alike come from different tables or passages of the source.

Columns and labels:
[1] = test system: Group II/III metabotropic glutamate receptors (mGluRs); assay: Cyclic AMP assay in rat cortical slices (forskolin-induced cyclic AMP accumulation); type: cell-based, Sprague Dawley rat; conditions: for Group II/III Agonist: inhibits forskolin-induced cyclic AMP accumulation; for Group II/III Agonist / Group II/III Antagonist: Yes/No; for Group II/III Antagonist: inhibits the glutamate-caused decrease in forskolin-induced cyclic AMP accumulation
Experimental: The assay of cyclic AMP formation can be performed as described previously (Tovey el al., Clinica Chimica Acta, 56, 221-234, 1974). The assay can be modelled on the cyclic AMP assay kit available from Amersham, which in turn, is based on the assay created by Tovey el al. Briefly, samples are prepared from Sprague Dawley rat (225-250 g) cortical slices. Slices are incubated with the drug, and then challenged with forskolin to induce cyclic AMP release. Following termination of the reaction by boiling, the slices are homogenized and centrifuged. Samples of supernatant are then incubated for 2-3 hours with a known quantity of [^3H]cAMP and a binding protein. When the incubation is complete, the bound cyclic AMP is separated from the free cyclic AMP by centrifugation with charcoal. The resulting supernatant (containing free cyclic AMP) is then analyzed by liquid scintillation counting. The amount of unbound cyclic AMP can be calculated from a standard curve previously determined with various samples of free cyclic AMP. Group II/III metabotropic glutamate receptors (mGluRs) are negatively coupled to adenylate cyclase, and agonists of these receptors lead to a decrease in intracellular cyclic AMP accumulation. The assay has been modeled on the cyclic AMP assay kit available from Amersham. This kit, in turn, is based on the assay created by Tovey et al. (1974). Briefly, the samples were prepared from Sprague Dawley rat (225-250 g) cortical slices. Slices were incubated with the test compound (drug), and then challenged with forskolin to induce cyclic AMP release. Following termination of the reaction by boiling, the slices were homogenized and centrifuged. Samples of supernatant were then incubated for 2-3 hours with a known quantity of [^3H]cAMP and a binding protein. When the incubation was complete, the bound cyclic AMP was separated from the free cyclic AMP by centrifugation with charcoal. The resulting supernatant (containing free cyclic AMP) was then analyzed by liquid scintillation counting. The amount of unbound cyclic AMP was calculated from a standard curve previously determined with various samples of free cyclic AMP. If the drugs tested inhibit forskolin-induced cyclic AMP accumulation, they are considered to be Group II/III agonists. Conversely, if they inhibit the decrease in forskolin-induced cyclic AMP accumulation caused by glutamate, they are considered to be Group II/III antagonists.

[2] = test system: Group I metabotropic glutamate receptors (mGluRs); assay: Phosphatidylinositol assay in neonatal rat tissue slices (inositol phosphate accumulation); type: cell-based, Sprague Dawley rat; conditions: for Group I Agonist: increase in intracellular free inositol phosphate accumulation; for Group I Agonist / Group I Antagonist: Yes/No; for EC50: inhibition of the inositol phosphate accumulation induced by ACPD, read-out: Group I Antagonist EC50; for Group I Antagonist: inhibits the inositol phosphate accumulation induced by ACPD
Experimental: Briefly, cross-chopped slices are prepared from neonatal Sprague Dawley rat tissue (age: p7-p14). The slices are pre-labelled with [3H] myo-inositol. Following pre-labelling, the slices are incubated with the test drugs and standard (known Group I agonists i.e. ACPD) for a period of 45 minutes. The incubation is terminated by the addition of chloroform/methanol/HCl (100:200:2). The resulting mixture is separated into two phases by the addition of chloroform and distilled water. The aqueous fraction is applied to ion exchange columns, and inositol phosphates are eluted using 800 mM Ammonium Formate/100 mM Formic Acid. The eluent is then analyzed using liquid scintillation counting. The amount of inositol phosphate accumulation is expressed as a percentage of that induced by ACPD. Group I metabotropic glutamate receptors (mGluRs) are positively coupled on inositol phosphate metabolism. Agonists at these receptors lead to an increase in intracellular free inositol phosphates, while antagonists inhibit the increase in intracellular free inositol phosphate induced by standard agonists (i.e. ACPD). Cross-chopped slices were prepared from neonatal Sprague Dawley rat tissue (age: p7-p14). The slices were pre-labelled with [^3H] myo-inositol. Following pre-labelling, the slices were incubated with the test compounds and standard (known Group I agonists i.e. ACPD) for a period of 45 minutes. The incubation was terminated by the addition of chloroform/methanol/HCl (100:200:2). The resulting mixture was separated into two phases by the addition of chloroform and distilled water. The aqueous fraction was applied to ion exchange columns, and inositol phosphates were eluted using 800 mM Ammonium Formate/100 mM Formic Acid. The eluent was then analyzed using liquid scintillation counting. The amount of inositol phosphate accumulation was expressed as a percentage of that induced by ACPD. If the drugs cause an increase in intracellular free inositol phosphate accumulation, they are considered to be Group I agonists. […]

mGluR1α receptor = molecular target: T1, mGluR1α receptor (Rattus norvegicus, UniProt P23385); assay: PI hydrolysis antagonist assay in Chinese hamster ovary cell lines expressing cloned mGluR1α; type: cell-based; conditions: CHO cells expressing cloned mGluR1α; compound at 5 mM; 10 µM (L)-glutamic acid; FIG. 1
T1 construct: expressed in transfected cells; host or cells: Chinese hamster ovary (CHO) cells
T1 sequence (P23385 19-1199): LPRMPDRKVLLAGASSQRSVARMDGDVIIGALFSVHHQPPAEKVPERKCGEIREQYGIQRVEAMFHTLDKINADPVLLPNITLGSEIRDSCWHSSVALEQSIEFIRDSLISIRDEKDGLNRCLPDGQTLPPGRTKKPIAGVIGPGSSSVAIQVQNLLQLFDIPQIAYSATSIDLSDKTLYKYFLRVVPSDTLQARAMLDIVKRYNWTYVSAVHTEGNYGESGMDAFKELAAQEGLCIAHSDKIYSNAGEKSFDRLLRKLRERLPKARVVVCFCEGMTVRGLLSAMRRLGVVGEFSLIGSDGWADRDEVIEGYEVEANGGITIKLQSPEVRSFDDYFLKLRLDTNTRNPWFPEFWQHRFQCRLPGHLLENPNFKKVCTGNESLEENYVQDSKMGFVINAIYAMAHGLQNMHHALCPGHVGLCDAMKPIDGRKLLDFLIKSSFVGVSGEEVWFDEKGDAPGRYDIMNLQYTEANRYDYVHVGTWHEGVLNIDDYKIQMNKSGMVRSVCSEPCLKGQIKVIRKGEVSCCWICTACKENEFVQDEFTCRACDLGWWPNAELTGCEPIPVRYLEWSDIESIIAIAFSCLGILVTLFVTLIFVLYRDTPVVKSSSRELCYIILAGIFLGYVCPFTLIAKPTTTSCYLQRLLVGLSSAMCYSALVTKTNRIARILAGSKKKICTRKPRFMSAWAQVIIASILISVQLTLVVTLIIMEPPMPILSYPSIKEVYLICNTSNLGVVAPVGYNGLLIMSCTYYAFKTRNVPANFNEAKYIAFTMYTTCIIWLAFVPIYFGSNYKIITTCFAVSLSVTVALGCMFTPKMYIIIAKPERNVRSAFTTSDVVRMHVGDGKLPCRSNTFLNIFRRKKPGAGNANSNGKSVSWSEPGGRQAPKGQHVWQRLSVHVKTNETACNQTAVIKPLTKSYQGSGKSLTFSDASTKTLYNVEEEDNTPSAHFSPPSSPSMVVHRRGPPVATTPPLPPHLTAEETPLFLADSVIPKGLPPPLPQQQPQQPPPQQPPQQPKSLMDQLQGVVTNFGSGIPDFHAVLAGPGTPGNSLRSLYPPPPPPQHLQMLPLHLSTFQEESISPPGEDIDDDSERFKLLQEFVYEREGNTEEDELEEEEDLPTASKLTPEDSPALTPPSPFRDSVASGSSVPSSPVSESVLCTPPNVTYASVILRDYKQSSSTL
Experimental: The Chinese hamster ovary cell lines expressing mGluR1α, mGlu R2 and mGluR4αreceptors have been described previously (Amarori and Nakanishi, Neuron 8, 757-765, 1992; Tanabe et al., Neuron 8, 169-179, 1992, and J. Neurochem. 63, 2038-2047, 1993). They are maintained at 37° C. in a humidified 5% CO2 incubator in Dubecco's Modified Eagle Medium (DMEM) containing a reduced concentration of(S)-glutamine (2 mM) and are supplemented with 1% proline, penicillin (100 U/mL), streptomycin ([…]) and 10% dialyzed fetal calf serum (all GIBCO, Paisley). Two days before assay 1.8×10^6 cells are evenly distributed into the wells of 24 well plates.
Phosphatidylinositol (PI) hydrolysis can be measured as described previously (Hayashi et al., Nature 366, 687-690,1992, and J. Neuroscience 14, 3370-3377, 1994). Briefly, the cells are labeled with [^3H]inositol (2 μCi/mL) 24 h prior to the assay. For agonist assays, the cells are incubated with test compound dissolved in phosphate-buffered saline (PBS)-LiC] for 20 min, and agonist activity is determined from the level of ^3H-labeled mono-, bis- and tris-inositol phosphates generated, as measured following ion-exchange chromatography, compared with the level generated in the absence of the test compound. […] The antagonist activity is then determined as the inhibitory effect of the (S)-Glu mediated response. […]

[3] = inhibition of forskolin-induced cyclic AMP accumulation, read-out: Group II/III Agonist EC50
[4] = inhibition of the glutamate-caused decrease in forskolin-induced cyclic AMP accumulation, read-out: Group II/III Antagonist EC50

EC50 [1, 3] [nM]	EC50 [1, 4] [nM]	Group II/III Agonist [1]	Group II/III Antagonist [1]	Group I Agonist [2]	EC50 [2] [nM]	Group I Antagonist [2]	Structure (SMILES)	antagonist activity: block of the increase in PI hydrolysis by (L)-glutamic acid at the mGluR1α receptor (mGluR1α receptor)
460	26	Yes	Yes	No	14000	Yes	NC(C(=O)O)C1c2ccccc2CC1CC(=O)O (centres unmarked) [Compound 18, 1-[2-amino]-2-indanediacetic acid]	–
–	610	No	Yes	No	–	No	NC(C(=O)O)C1CC(C(=O)O)c2ccccc21 (centres unmarked) [Compound 23, 1-[2-amino]-3-carboxyindaneacetic acid]	–
2100	–	–	–	–	–	–	N[C@@]1(C(=O)O)C[C@H](C(=O)O)c2ccccc21 (stereo in doubt) [Compound 4b, Cis-1-aminoindane-1,3-dicarboxylic acid]	–
–	34	–	–	–	1100	–	N[C@]1(C(=O)O)c2ccccc2C[C@H]1CC(=O)O (relative stereo) [Compound 9, Trans-1-amino-1-carboxyindane-2-acetic acid]	–
990	–	–	–	–	1.3	–	N[C@]1(C(=O)O)C[C@@H](CC(=O)O)c2ccccc21 (relative stereo) [Compound 13, Trans-1-amino-1-carboxyindane-3-acetic acid]	–

Structure (SMILES)	EC50 [1, 3] [nM]	EC50 [1, 4] [nM]	Group II/III Agonist [1]	Group II/III Antagonist [1]	Group I Agonist [2]	EC50 [2] [nM]	Group I Antagonist [2]	antagonist activity: block of the increase in PI hydrolysis by (L)-glutamic acid at the mGluR1α receptor (mGluR1α receptor)
N[C@]1(C(=O)O)C[C@H](C(=O)O)c2ccccc21 [Compound 4a, Trans-1-aminoaindane-1,3-dicarboxylic acid]	–	–	No	No	No	480	Yes	effectively blocked
